Positions of bridges follow the written chain, without caps; N, C: chain ends. Residues, ends and D or L forms follow the SMILES beside them.
Target: T1, Serine protease 1 (Bos taurus) (UniProt P00760)
T1 sequence (whole entry): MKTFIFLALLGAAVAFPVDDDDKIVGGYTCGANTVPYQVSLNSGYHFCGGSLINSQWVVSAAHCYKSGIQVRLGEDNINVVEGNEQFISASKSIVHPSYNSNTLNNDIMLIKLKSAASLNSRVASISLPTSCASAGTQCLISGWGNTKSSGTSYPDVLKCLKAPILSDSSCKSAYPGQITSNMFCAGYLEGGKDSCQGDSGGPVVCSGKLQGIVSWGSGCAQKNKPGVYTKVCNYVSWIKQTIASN
Assay: Inhibition of bovine beta-trypsin using BAPNA as substrate assessed as […]

SMILES	Activity [nM]
CC[C@H](C)[C@@H]1NC(=O)[C@H](CCCNC(=N)N)NC(=O)[C@H](CC(C)C)NC(=O)[C@H](CCCNC(=N)N)NC(=O)[C@@H]2CCCN2C(=O)[C@@H]2CCCN2C(=O)[C@H](Cc2cnc[nH]2)NC(=O)[C@@H]2CCCN2C(=O)[C@H](C(C)C)NC(=O)[C@@H]2CSSC[C@@H]3NC(=O)[C@H]([C@@H](C)CC)NC(=O)[C@H](CCC(N)=O)NC(=O)[C@H](CC(=O)O)NC(=O)[C@H]([C@@H](C)O)NC(=O)[C@H](CCCCN)NC(=O)[C@H](C)NC(=O)[C@@H](NC(=O)[C@H](CCC(=O)O)NC(=O)[C@H](CCC(=O)O)NC(=O)[C@H](CC(=O)O)NC(=O)[C@@H](N)CCC(=O)O)CSSC[C@H](NC(=O)[C@H](CSSC[C@@H](C(=O)N[C@@H](C)C(=O)O)NC(=O)[C@H](C(C)C)NC(=O)[C@H](Cc4ccccc4)NC1=O)NC(=O)[C@H](Cc1ccc(O)cc1)NC(=O)[C@H](CC(N)=O)NC(=O)[C@@H]1CCCN1C(=O)[C@H](C)NC(=O)[C@H](CC(N)=O)NC(=O)[C@@H]1CCCN1C(=O)[C@@H]1CCCN1C3=O)C(=O)N[C@@H](CO)C(=O)NCC(=O)N[C@@H](CO)C(=O)N2 (H-EDEECAKTDQICPPNAPNYCCSGSCVPHPPRLRIFVCA-OH; disulfide 5-21, 12-25, 20-37)	536
CC[C@H](C)[C@@H]1NC(=O)[C@H](C)NC(=O)CNC(=O)[C@H](CO)NC(=O)[C@@H]2CCCN2C(=O)[C@H](CO)NC(=O)[C@@H](NC(=O)[C@@H](N)CCCCN)CSSC[C@@H]2NC(=O)[C@@H]3CSSC[C@@H](C(=O)N[C@@H](CCC(N)=O)C(=O)O)NC(=O)[C@H](C(C)C)NC(=O)[C@H](Cc4ccccc4)NC(=O)[C@H]([C@@H](C)CC)NC(=O)[C@H](CCCNC(=N)N)NC(=O)[C@H](CC(C)C)NC(=O)[C@H]([C@@H](C)CC)NC(=O)[C@@H]4CCCN4C(=O)[C@H](Cc4cnc[nH]4)NC(=O)[C@@H]4CCCN4C(=O)[C@H](C(C)C)NC(=O)[C@H](CSSC[C@H](NC1=O)C(=O)N[C@@H](CO)C(=O)NCC(=O)N[C@@H](Cc1ccccc1)C(=O)NCC(=O)N1CCC[C@H]1C(=O)N1CCC[C@H]1C(=O)N[C@@H](CCC(=O)O)C(=O)N[C@@H](CCC(N)=O)C(=O)N3)NC(=O)[C@H](C)NC(=O)CNC(=O)[C@H](CO)NC2=O (H-KCSPSGAICSGFGPPEQCCSGACVPHPILRIFVCQ-OH; disulfide 2-19, 9-23, 18-34)	185
